Measurements from patent publication US20260209196A1, “AMIDINOUREA DERIVATIVES AND THEIR USE IN THE TREATMENT OF CANCER” (UNIVERSITE COTE D'AZUR, priority 2022, published 2026).

Each compound was assayed on A375 (assay: Cell viability of A375 melanoma cells by Trypan Blue exclusion). Conditions: Homo sapiens, A-375; 5 μM, 24 h; viable cells as mean percentage of control cells ± SEM, N=3; read-out: Viab A375 5 μM/24 h.
Assay type: cell-based
Experimental: The BRAFV600E mutant melanoma line A375 (CRL-1619) was purchased from ATCC (Manassas, VA, USA). The A375 were maintained in glutamine-containing DMEM supplemented with 10% heat-inactivated fetal bovine serum, penicillin (100 units/ml) and streptomycin ([…]).
Cell viability was measured by the Trypan Blue exclusion method. Briefly, cells washed with PBS were harvested by a 3-minute incubation in 0.05% trypsin before neutralization with serum containing medium. An aliquot of the cell suspension was then mixed 1:1 with a 0.4% Trypan blue solution and viable cells were counted within 5 minutes on Kova slides under an optical microscope. Results are expressed as the mean percentage of control cells±SEM. N=3

Question: With `COc1ccccc1NC(=O)NC(=N)Nc1nc2ccccc2s1` [MTF419, N-benzo[d]thiazol-2-yl-N″-(2-methoxyaniline-carbonyl)-guanidine] as the compound, how does the viability at 5 µM read?
Answer: 62.6%

Question: With `Cc1cccc(NC(=O)NC(=N)Nc2nc3ccccc3s2)c1` [MTF420, N-benzo[d]thiazol-2-yl-N″-(3-methylaniline-carbonyl)-guanidine] as the compound, how does the viability at 5 µM read?
Answer: 59%

Question: How did the viability at 5 µM turn out when `N=C(NC(=O)NC1CC1)Nc1nc2ccccc2s1` [MTF214, N—(N-(benzo[d]thiazol-2-yl)carbamimidoyl)cyclopropylamine-1-carboxamide] was run?
Answer: 98.2%

Question: Which viability at 5 µM does the source give for `Cc1nc(NC(=N)NC(=O)Nc2ccc(Cl)cc2)sc1C` [MTF507, 4,5-dimethylthiazol-2-yl-N″-(4-chloroaniline-carbonyl)-guanidine] here?
Answer: 98.9%

Question: Which viability at 5 µM does the source give for `COc1ccccc1NC(=O)NC(=N)Nc1nc(-c2ccccc2)cs1` [MTF433, N-4-phenylthiazol-2-yl-N″-(2-methoxyaniline-carbonyl)-guanidine] here?
Answer: 109%

Question: Which viability at 5 µM does the source give for `Cc1cccc(NC(=O)NC(=N)Nc2nc(C)c(C)s2)c1` [MTF510, 4,5-dimethylthiazol-2-yl-N″-(3-methylaniline-carbonyl)-guanidine] here?
Answer: 56.5%

Question: `Cc1nc(NC(=N)NC(=O)Nc2cccc([N+](=O)[O-])c2)sc1C` [MTF512, 4,5-dimethylthiazol-2-yl-N″-(3-nitroaniline-carbonyl)-guanidine] was tested. Which viability at 5 µM did it give?
Answer: 87%

Question: `COc1cccc(NC(=O)NC(=N)Nc2nc(-c3cccc([N+](=O)[O-])c3)cs2)c1` [MTF432, N-4-(3-nitrophenyl) thiazol-2-yl-N″-(3-methoxyaniline-carbonyl)-guanidine] was tested. Which viability at 5 µM did it give?
Answer: 115%

Question: `N=C(NC(=O)Nc1cccc(Cl)c1)Nc1nc2ccccc2s1` [MTF415, N-benzo[d]thiazol-2-yl-N″-(3-chloroaniline-carbonyl)-guanidine] was tested. Which viability at 5 µM did it give?
Answer: 93.5%

Question: With `N=C(NC(=O)Nc1cccc2ccccc12)Nc1nc(-c2ccccc2)cs1` [MTF435, N-4-phenylthiazol-2-yl-N″-(naphtalen-1-amine-carbonyl)-guanidine] as the compound, how does the viability at 5 µM read?
Answer: 81%

Question: Which viability at 5 µM does the source give for `Cc1nc(NC(=N)NC(=O)Nc2ccccc2Cl)sc1C` [MTF505, 4,5-dimethylthiazol-2-yl-N″-(2-chloroaniline-carbonyl)-guanidine] here?
Answer: 31.1%

Question: For `Cc1nc(NC(=N)NC(=O)Nc2ccc(Br)cc2)sc1C` [MTF429, 4,5-dimethylthiazol-2-yl-N″-(4-bromoaniline-carbonyl)-guanidine], which viability at 5 µM is on record?
Answer: 94.2%

Question: For `N=C(NC(=O)Nc1ccc(Cl)cc1)Nc1nc(-c2cccc([N+](=O)[O-])c2)cs1` [MTF428, N-4-(3-nitrophenyl) thiazol-2-yl-N″-(4-chloroaniline-carbonyl)-guanidine], which viability at 5 µM is on record?
Answer: 128%

Question: `COc1ccccc1NC(=O)NC(=N)Nc1nc(-c2cccc([N+](=O)[O-])c2)cs1` [MTF434, N-4-(3-nitrophenyl) thiazol-2-yl-N″-(2-methoxyaniline-carbonyl)-guanidine] was tested. Which viability at 5 µM did it give?
Answer: 63.8%

Question: With `Cc1nc(NC(=N)NC(=O)Nc2ccccc2)sc1C` [MTF496, 4,5-dimethylthiazol-2-yl-N″-(aniline-carbonyl)-guanidine] as the compound, how does the viability at 5 µM read?
Answer: 67.7%

Question: With `N=C(NC(=O)Nc1cccc2ccccc12)Nc1nc(-c2cccc([N+](=O)[O-])c2)cs1` [MTF430, N-4-(3-nitrophenyl) thiazol-2-yl-N″-(naphtalen-1-amine-carbonyl)-guanidine] as the compound, how does the viability at 5 µM read?
Answer: 75.8%

Question: How did the viability at 5 µM turn out when `N=C(NC(=O)Nc1ccc(Cl)cc1)Nc1nc(-c2ccccc2)cs1` [MTF426, N-4-phenylthiazol-2-yl-N″-(4-chloroaniline-carbonyl)-guanidine] was run?
Answer: 109%

Same assay, conditions: Homo sapiens, A-375; 5 μM, 48 h; viable cells as mean percentage of control cells ± SEM, N=3; read-out: Viab A375 5 μM/48 h

Question: With `COc1ccccc1NC(=O)NC(=N)Nc1nc2ccccc2s1` [MTF419, N-benzo[d]thiazol-2-yl-N″-(2-methoxyaniline-carbonyl)-guanidine] as the compound, how does the viability at 5 µM read?
Answer: 18.8%

Question: For `Cc1cccc(NC(=O)NC(=N)Nc2nc3ccccc3s2)c1` [MTF420, N-benzo[d]thiazol-2-yl-N″-(3-methylaniline-carbonyl)-guanidine], which viability at 5 µM is on record?
Answer: 24.8%

Question: With `N=C(NC(=O)NC1CC1)Nc1nc2ccccc2s1` [MTF214, N—(N-(benzo[d]thiazol-2-yl)carbamimidoyl)cyclopropylamine-1-carboxamide] as the compound, how does the viability at 5 µM read?
Answer: 76.6%

Question: How did the viability at 5 µM turn out when `Cc1nc(NC(=N)NC(=O)Nc2ccc(Cl)cc2)sc1C` [MTF507, 4,5-dimethylthiazol-2-yl-N″-(4-chloroaniline-carbonyl)-guanidine] was run?
Answer: 139%

Question: `COc1ccccc1NC(=O)NC(=N)Nc1nc(-c2ccccc2)cs1` [MTF433, N-4-phenylthiazol-2-yl-N″-(2-methoxyaniline-carbonyl)-guanidine] was tested. Which viability at 5 µM did it give?
Answer: 43.9%

Question: How did the viability at 5 µM turn out when `Cc1cccc(NC(=O)NC(=N)Nc2nc(C)c(C)s2)c1` [MTF510, 4,5-dimethylthiazol-2-yl-N″-(3-methylaniline-carbonyl)-guanidine] was run?
Answer: 26.1%

Question: Which viability at 5 µM does the source give for `Cc1nc(NC(=N)NC(=O)Nc2cccc([N+](=O)[O-])c2)sc1C` [MTF512, 4,5-dimethylthiazol-2-yl-N″-(3-nitroaniline-carbonyl)-guanidine] here?
Answer: 54.3%

Question: For `COc1cccc(NC(=O)NC(=N)Nc2nc(-c3cccc([N+](=O)[O-])c3)cs2)c1` [MTF432, N-4-(3-nitrophenyl) thiazol-2-yl-N″-(3-methoxyaniline-carbonyl)-guanidine], which viability at 5 µM is on record?
Answer: 29.8%

Question: Which viability at 5 µM does the source give for `N=C(NC(=O)Nc1cccc(Cl)c1)Nc1nc2ccccc2s1` [MTF415, N-benzo[d]thiazol-2-yl-N″-(3-chloroaniline-carbonyl)-guanidine] here?
Answer: 32.9%

Question: With `N=C(NC(=O)Nc1cccc2ccccc12)Nc1nc(-c2ccccc2)cs1` [MTF435, N-4-phenylthiazol-2-yl-N″-(naphtalen-1-amine-carbonyl)-guanidine] as the compound, how does the viability at 5 µM read?
Answer: 84.6%

Question: How did the viability at 5 µM turn out when `Cc1nc(NC(=N)NC(=O)Nc2ccccc2Cl)sc1C` [MTF505, 4,5-dimethylthiazol-2-yl-N″-(2-chloroaniline-carbonyl)-guanidine] was run?
Answer: 10%

Question: With `Cc1nc(NC(=N)NC(=O)Nc2ccc(Br)cc2)sc1C` [MTF429, 4,5-dimethylthiazol-2-yl-N″-(4-bromoaniline-carbonyl)-guanidine] as the compound, how does the viability at 5 µM read?
Answer: 39.1%

Question: Which viability at 5 µM does the source give for `N=C(NC(=O)Nc1ccc(Cl)cc1)Nc1nc(-c2cccc([N+](=O)[O-])c2)cs1` [MTF428, N-4-(3-nitrophenyl) thiazol-2-yl-N″-(4-chloroaniline-carbonyl)-guanidine] here?
Answer: 50.2%

Question: How did the viability at 5 µM turn out when `COc1ccccc1NC(=O)NC(=N)Nc1nc(-c2cccc([N+](=O)[O-])c2)cs1` [MTF434, N-4-(3-nitrophenyl) thiazol-2-yl-N″-(2-methoxyaniline-carbonyl)-guanidine] was run?
Answer: 50.7%

Question: With `Cc1nc(NC(=N)NC(=O)Nc2ccccc2)sc1C` [MTF496, 4,5-dimethylthiazol-2-yl-N″-(aniline-carbonyl)-guanidine] as the compound, how does the viability at 5 µM read?
Answer: 56.6%

Question: With `N=C(NC(=O)Nc1cccc2ccccc12)Nc1nc(-c2cccc([N+](=O)[O-])c2)cs1` [MTF430, N-4-(3-nitrophenyl) thiazol-2-yl-N″-(naphtalen-1-amine-carbonyl)-guanidine] as the compound, how does the viability at 5 µM read?
Answer: 25.3%

Question: How did the viability at 5 µM turn out when `N=C(NC(=O)Nc1ccc(Cl)cc1)Nc1nc(-c2ccccc2)cs1` [MTF426, N-4-phenylthiazol-2-yl-N″-(4-chloroaniline-carbonyl)-guanidine] was run?
Answer: 46.4%

Same assay, conditions: Homo sapiens, A-375; 10 μM, 24 h; viable cells as mean percentage of control cells ± SEM, N=3; read-out: Viab A375 10 μM/24 h

Question: For `COc1ccccc1NC(=O)NC(=N)Nc1nc2ccccc2s1` [MTF419, N-benzo[d]thiazol-2-yl-N″-(2-methoxyaniline-carbonyl)-guanidine], which viability at 10 µM is on record?
Answer: 56.8%

Question: How did the viability at 10 µM turn out when `Cc1cccc(NC(=O)NC(=N)Nc2nc3ccccc3s2)c1` [MTF420, N-benzo[d]thiazol-2-yl-N″-(3-methylaniline-carbonyl)-guanidine] was run?
Answer: 48.9%

Question: With `N=C(NC(=O)NC1CC1)Nc1nc2ccccc2s1` [MTF214, N—(N-(benzo[d]thiazol-2-yl)carbamimidoyl)cyclopropylamine-1-carboxamide] as the compound, how does the viability at 10 µM read?
Answer: 51.5%

Question: `N=C(NC(=O)Nc1cccc(Cl)c1)Nc1nc2ccccc2s1` [MTF415, N-benzo[d]thiazol-2-yl-N″-(3-chloroaniline-carbonyl)-guanidine] was tested. Which viability at 10 µM did it give?
Answer: 58.3%

Same assay, conditions: Homo sapiens, A-375; 10 μM, 48 h; viable cells as mean percentage of control cells ± SEM, N=3; read-out: Viab A375 10 μM/48 h

Question: Which viability at 10 µM does the source give for `COc1ccccc1NC(=O)NC(=N)Nc1nc2ccccc2s1` [MTF419, N-benzo[d]thiazol-2-yl-N″-(2-methoxyaniline-carbonyl)-guanidine] here?
Answer: 21.8%

Question: With `Cc1cccc(NC(=O)NC(=N)Nc2nc3ccccc3s2)c1` [MTF420, N-benzo[d]thiazol-2-yl-N″-(3-methylaniline-carbonyl)-guanidine] as the compound, how does the viability at 10 µM read?
Answer: 20.4%

Question: How did the viability at 10 µM turn out when `N=C(NC(=O)NC1CC1)Nc1nc2ccccc2s1` [MTF214, N—(N-(benzo[d]thiazol-2-yl)carbamimidoyl)cyclopropylamine-1-carboxamide] was run?
Answer: 87.7%

Question: For `N=C(NC(=O)Nc1cccc(Cl)c1)Nc1nc2ccccc2s1` [MTF415, N-benzo[d]thiazol-2-yl-N″-(3-chloroaniline-carbonyl)-guanidine], which viability at 10 µM is on record?
Answer: 19.9%

The compounds below were run on NCI 60 cell panel (assay: DTP-NCI assay (NCI 60 cell screen, single high dose)). Conditions: Homo sapiens, 48 h; single high dose 10^-5 M, full NCI 60 cell panel; growth relative to no-drug control and to time zero number of cells; read-out: DTP-NCI (mean of the percent growth of treated cells).
Assay type: cell-based
Experimental: The effect of 10 μM of MTF504 was monitored on a panel 60 cell lines representing nine distinct tumour types: leukemia, colon, lung, central nervous system, renal, melanoma, ovarian, breast and prostate. Briefly, the compound was sent to the US National Cancer Institute where its antineoplastic effects were monitored on the panel of cell lines after 48 hours of treatment following a standardized protocol.
All compounds submitted to the NCI 60 Cell screen are tested initially at a single high dose (10^-5 M) in the full NCI 60 cell panel. The results are reported as a mean of the percent growth of treated cells. The number reported is growth relative to the no-drug control, and relative to the time zero number of cells. This allows detection of […].

Question: How did the activity at 10 µM turn out when `COc1ccccc1NC(=O)NC(=N)Nc1nc2ccccc2s1` [MTF419, N-benzo[d]thiazol-2-yl-N″-(2-methoxyaniline-carbonyl)-guanidine] was run?
Answer: 26.7%

Question: How did the activity at 10 µM turn out when `Cc1cccc(NC(=O)NC(=N)Nc2nc3ccccc3s2)c1` [MTF420, N-benzo[d]thiazol-2-yl-N″-(3-methylaniline-carbonyl)-guanidine] was run?
Answer: 32.9%

Question: `Cc1cccc(NC(=O)NC(=N)Nc2nc(C)c(C)s2)c1` [MTF510, 4,5-dimethylthiazol-2-yl-N″-(3-methylaniline-carbonyl)-guanidine] was tested. Which activity at 10 µM did it give?
Answer: 47.2%

Question: Which activity at 10 µM does the source give for `COc1cccc(NC(=O)NC(=N)Nc2nc(-c3cccc([N+](=O)[O-])c3)cs2)c1` [MTF432, N-4-(3-nitrophenyl) thiazol-2-yl-N″-(3-methoxyaniline-carbonyl)-guanidine] here?
Answer: 74.8%

Question: `N=C(NC(=O)Nc1cccc(Cl)c1)Nc1nc2ccccc2s1` [MTF415, N-benzo[d]thiazol-2-yl-N″-(3-chloroaniline-carbonyl)-guanidine] was tested. Which activity at 10 µM did it give?
Answer: 35.4%

Question: With `Cc1nc(NC(=N)NC(=O)Nc2ccccc2Cl)sc1C` [MTF505, 4,5-dimethylthiazol-2-yl-N″-(2-chloroaniline-carbonyl)-guanidine] as the compound, how does the activity at 10 µM read?
Answer: 33%

Question: How did the activity at 10 µM turn out when `Cc1nc(NC(=N)NC(=O)Nc2ccccc2)sc1C` [MTF496, 4,5-dimethylthiazol-2-yl-N″-(aniline-carbonyl)-guanidine] was run?
Answer: 83.8%

Question: Which activity at 10 µM does the source give for `N=C(NC(=O)Nc1cccc2ccccc12)Nc1nc(-c2cccc([N+](=O)[O-])c2)cs1` [MTF430, N-4-(3-nitrophenyl) thiazol-2-yl-N″-(naphtalen-1-amine-carbonyl)-guanidine] here?
Answer: 89.2%
